Assay results: patent publication US20080118494A1, “Compositions For Detection Of Latent Hiv Reactivation And Methods Of Using The Same” (priority 2004, published 2008)

Columns and labels:
[1] = tested on: latent HIV-1 infection in bulk population of latently infected JLTRG cells; assay: Reactivation of latent HIV-1 in a bulk population of latently infected cells, flow cytometry; type: cell-based; conditions: optimal concentration of each compound, day 57 bulk population, 100,000 viable cells counted
Procedure: (A) Jurkat cells were infected with an EGFP expressing, replication incompetent reporter virus and the level of productive HIV-1 infection at each indicated time-point was directly assessed by flow cytometric analysis for EGFP expression (untreated; black circles). Levels of initial non-productive and later on latent HIV-1 infection was determined 24 hours following TNF-α stimulation (black squares). The results represent the mean ±S.D. of three independent experiments.
a) Quantification of the HIV-1 reactivating capabilities of test compounds. Following infection, HIV-1 integrates into the cellular genome. Integration is random, although HIV-1 preferentially integrates into euchromatin structures. Latency development can be thus influenced by a multitude of factors that alter gene expression or DNA structure, such as divergent gene expression patterns or the cell cycle stage at the time point of viral integration. Although the reporter cell lines are representative for the majority of latently infected cells and reliably identify most reactivating agents during the screening effort, they can not allow quantification of the capability of the individual compounds to reactivate HIV-1 infection from a diverse population of latently infected cells. To account for the influence that the side of integration of a latent virus can have on a compounds ability to reactivate the virus, a bulk population of latently infected cells (FIG. 7) was established. Following infection of JLTRG cells with HIV-1 NL43, a rapid increase of the level of infection can be observed. On day 3, an average 27% of the cells were productively infected. […] Until day 15, the percentage of productively infected cells rapidly declined to 3% of the overall cell population. At this time point, an additional 5% of the cells were non-productively infected. […] Since 1×10^6 cells were initially infected, and virus mediated inhibition of cell proliferation influences the relative level of infection over time can be excluded, it can be calculated that the latently infected cell population should consist of […] individual latently infected cells. This bulk population of cells allows quantification of the capability of the respective compounds to reactivate latent HIV-1. […] Each compound was titrated over a two-log concentration range to allow for optimal reactivation. The results for the optimal concentration of each compound are depicted in FIG. 7B. […] TNF-α (10 ng/ml) reactivated latent HIV-1 infection in 5% of the cells, whereas the DNA histone deacetylase inhibitors trichostatin A (TSA) and sodium butyrate (NaBu) reactivated latent HIV-1 infection in only 3% or 2.5% of the cells, respectively. To achieve an accurate estimate of the differences in the capability of different agents to reactivate HIV-1 infection it is important to run a sufficiently high number of cells. For this flow cytometry based analysis, 100,000 cells viable per sample were counted.

[2] = tested on: latent HIV-1 infection in human thymocytes derived from SCID-hu (Thy/liv) mice; assay: Ex vivo reactivation of latent HIV-1 in thymocytes from infected SCID-hu (Thy/Liv) mice, EYFP flow cytometry; type: cell-based; conditions: for EYFP+ cells: 24 h after depletion of EYFP+ cells, untreated 50; for induction of latent HIV-1 expression in thymocytes: range among tissue samples of four animals
Procedure: SCID-hu (Thy/liv) mice were infected with HIV-1 NLENY1-IRES, and thymocytes were isolated 2-4 weeks following infection. Cells were cultured for two days in the presence of AZT and indinavir to stop de novo infection and then subjected to fluorescence activated cell sorting to remove all EYFP^+ cells. Immediately following cell separation, the cells were seeded at a concentration of 1×10^6 cell/ml, cultured in supplemented RPMI 1640 to determine levels of spontaneous reactivation, stimulated with PMA, TNF-α, activating anti-CD28 antibody (clone 5D10) and the […] sodium butyrate (NaBu; two animals only). Levels of reactivation achieved in HIV-1 infected thymocytes derived from 4 different SCID-hu (Thy/liv) mice following ex vivo reactivation with the indicated stimulators are depicted as fold induction of […].
Isolation of thymocytes from SCID-hu (Thy/Liv) mice. Thy/Liv implants from the infected mice were harvested 2-4 weeks post infection and single cell suspensions generated by dissociation of the tissue. Thymocytes were isolated by Ficoll-Paque density gradient centrifugation and were cultured for two days in RPMI 1640 supplemented with 10% heat-inactivated FBS, 2 mM L-glutamine, 100 U/ml of penicillin, and 100 μg/ml of streptomycin, in the presence of indinavir and AZT, to inhibit de novo infection. Productively infected thymocytes, which expressed EYFP, were then removed from the cultures by FACS sorting. Purity of the resulting EYFP-negative cell population was determined by flow cytometric analysis for EYFP and was usually greater than 99.9%. Immediately following the sort, cells were stimulated. HIV-1 reactivation, as indicated by the de novo expression of EYFP was quantified by flow cytometry, acquiring at least 1×10^6 cells per sample in the live gate.
Reactivation of latent HIV-1 infection by anti-CD28 antibodies in human thymocytes derived from SCID-hu (Thy/liv) mice. Whether activating anti-CD28 antibody would also reactivate latent HIV-1 in a system where latency in primary cells was achieved under in vivo conditions was tested. For this purpose, a modification of the HIV-1 established SCID-hu (Thy/Liv) mouse system was used that has been previously used for the study of HIV-1 latency. Brooks et al., Nat. Med. 7:459-464 (2001). SCID-hu (Thy/Liv) mice were infected with HIV-1 NLENY1-IRES to allow for the easy and direct detection of infected cells using flow cytometry. Levy et al., Proc. Nat. Acad. Sci. 101:4204-4209 (2004). […] Levels of infection were determined by flow cytometry for EYFP, and varied in the different animals between 0.5 and 6% of the total thymocyte population. […] The cultures were then subjected to fluorescence activated cell sorting to remove all EYFP positive cells. […]

CCCCCCCCCCCCCC(=O)O[C@@H]1[C@@H](C)[C@@]2(O)[C@@H](C=C(CO)C[C@]3(O)C(=O)C(C)=C[C@@H]23)[C@@H]2C(C)(C)[C@]12OC(C)=O [PMA, 13-phorbol-12-myristate acetate]
cells in which latent HIV-1 infection was reactivated [1]: 7% | EYFP+ cells [2]: 260 cells of 1×10^6 cells | induction of latent HIV-1 expression in thymocytes [2]: 2.5-7 fold

TNF-α
cells in which latent HIV-1 infection was reactivated [1]: 5% | EYFP+ cells [2]: 250 cells of 1×10^6 cells | induction of latent HIV-1 expression in thymocytes [2]: 3-6 fold
